Biological target: T1, Recombinant human LTC4 synthase (Homo sapiens, UniProt Q16873)
T1 construct: made in house; host or cells: Pichia pastoris
T1 sequence (Q16873 1-150): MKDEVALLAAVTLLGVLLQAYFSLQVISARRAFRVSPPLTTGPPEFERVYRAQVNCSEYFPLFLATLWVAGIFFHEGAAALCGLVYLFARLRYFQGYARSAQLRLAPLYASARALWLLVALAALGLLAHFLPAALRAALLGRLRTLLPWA
Assay: In vitro LTC4 synthase assay (LTA4 to LTC4, HTRF detection)
Assay type: biochemical
Conditions: for inhibition at 10 µM: 5 min, total concentration of title compounds in the assay 10 μM
Protocol: In the assay, LTC4 synthase catalyses the reaction where the substrate LTA4 is converted to LTC4. Recombinant human LTC4 synthase is expressed in Piccia pastoralis and the purified enzyme is dissolved in 25 mM tris-buffer pH 7.8 supplemented with 0.1 mM glutathione (GSH) and stored at −80° C. The assay is performed in phosphate buffered saline (PBS) pH 7.4 and 5 mM GSH in 384-well plates.
The following is added chronologically to each well:
1. 48 μL LTC4 synthase in PBS with 5 mM GSH. The total protein concentration in this solution is 0.5 μg/mL. 2. 1 μL inhibitor in DMSO (final concentration 10 μM). 3. Incubation of the plate at room temperature for 10 min. 4. 1 μL LTA4 (final concentration 2.5 μM). 5. Incubation of the plate at room temperature for 5 min. 6. 10 μL of the incubation mixture is analysed using homogenous time resolved fluorescent (HTRF) detection.

[1] = title compounds of the Examples

Structure (SMILES) | inhibition at 10 µM [%] | IC50 [1] [nM] | IC50 (value printed in the text of Example 4:1) [nM] | IC50 (Table 4, title compounds of Example 4) [nM]
CN(c1ccc(Cl)cc1)c1ccc(C(=O)c2ccc([S+]([O-])c3ccc(F)c(F)c3)c(C(=O)O)c2)nc1 (centres unmarked) [Example 1:13, 5-{5-[(4-Chlorophenyl)methylamino]pyridine-2-carbonyl}-2-(3,4-difluorophenyl-sulfinyl)benzoic acid] | 99 | 87 | – | –
O=C(c1ccc([S+]([O-])c2ccc(C(F)(F)F)cc2)c(C(=O)O)c1)c1ccc(N(CC2CC2)c2ccc(Cl)cc2)cn1 (centres unmarked) [Example 1:14, 5-{5-[(4-Chlorophenyl)cyclopropylmethylamino]pyridine-2-carbonyl}-2-(4-tri-fluoromethylphenylsulfinyl)benzoic acid] | – | 48 | – | –
CN(c1ccc(Cl)cc1)c1ccc(C(=O)c2cc(C(=O)O)cc([S+]([O-])c3ccc(F)c(F)c3)c2)cc1 (centres unmarked) [Example 1:19, 3-{4-[(4-Chlorophenyl)(methyl)amino]benzoyl}-5-(3,4-difluorophenylsulfinyl)-benzoic acid] | – | 212 | – | –
CCCCCC[S+]([O-])c1cc(C(=O)O)cc(C(=O)c2ccc(N(C)c3ccc(Cl)cc3)cn2)c1 (centres unmarked) [Example 1:20, 3-{5-[(4-Chlorophenyl)methylamino]pyridine-2-carbonyl}-5-(1-hexylsulfinyl)-benzoic acid] | – | 404 | – | –
CCCCCC[S+]([O-])c1ccc(C(=O)c2ncc(N(C)c3ccc(Cl)cc3)cn2)cc1C(=O)O (centres unmarked) [Example 1:21, 5-(5-((4-Chlorophenyl)(methyl)amino)pyrimidine-2-carbonyl)-2-(1-hexylsulfinyl)-benzoic acid] | 99 | 54 | – | –
CCCCCC[S+]([O-])c1ccc(C(=O)c2ccc(N(C)c3ccc(Cl)cc3)cn2)cc1C(=O)O (centres unmarked) [Example 1:22, 5-{5-[(4-Chlorophenyl)methylamino]pyridine-2-carbonyl}-2-(1-hexylsulfinyl)-benzoic acid] | – | 41 | – | –
CCCCCCSc1ccc(C(=O)c2ccc(N(C)c3ccc(Cl)cc3)cc2)cc1C(=O)O [Example 2:1, 5-{4-[(4-Chlorophenyl)(methyl)amino]benzoyl}-2-(1-hexylsulfanyl)benzoic acid] | 99 | 172 | – | –
CN(c1ccc(Cl)cc1)c1ccc(C(=O)c2ccc(Sc3cccc(Cl)c3)c(C(=O)O)c2)cc1 [Example 2:2, 5-{4-[(4-Chlorophenyl)(methyl)amino]benzoyl}-2-(3-chlorophenylsulfanyl)-benzoic acid] | 98 | 73 | – | –
O=C(c1ccc(Sc2ccc(F)c(F)c2)c(C(=O)O)c1)c1ccc(OCc2cccc(Cl)c2)cn1 [Example 2:21, 5-[5-(3-Chlorobenzyloxy)pyridine-2-carbonyl]-2-(3,4-difluorophenyl-sulfanyl)benzoic acid] | – | 119 | – | –

The remaining lines, values ahead:

inhibition at 10 µM [%] | IC50 [1] [nM] | IC50 (value printed in the text of Example 4:1) [nM] | IC50 (Table 4, title compounds of Example 4) [nM] | Structure (SMILES)
– | 252 | – | – | COc1ccc(Sc2ccc(C(=O)c3ccc(OCc4cccc(Cl)c4)cn3)cc2C(=O)O)cc1 [Example 2:22, 5-[5-(3-Chlorobenzyloxy)pyridine-2-carbonyl]-2-(4-methoxyphenyl-sulfanyl)benzoic acid]
97 | 398 | – | – | CCCCCCS(=O)(=O)c1ccc(C(=O)c2ccc(N(C)c3ccc(Cl)cc3)cc2)cc1C(=O)O [Example 3:1, 5-{4-[(4-Chlorophenyl)(methyl)amino]benzoyl}-2-(1-hexylsulfonyl)benzoic acid]
98 | 635 | – | – | CN(c1ccc(Cl)cc1)c1ccc(C(=O)c2ccc(S(=O)(=O)c3ccc(Cl)cc3)c(C(=O)O)c2)cc1 [Example 3:2, 5-{4-[(4-Chlorophenyl)(methyl)amino]benzoyl}-2-(4-chlorophenylsulfonyl)benzoic acid]
– | – | 212 | – | CN(c1ccc(Cl)cc1)c1ccc(C(=O)c2cc(C(=O)O)cc([S+]([O-])c3ccc(F)c(F)c3)c2)cc1 (centres unmarked) [Example 4:1, 3-{4-[(4-Chlorophenyl)(methyl)amino]benzoyl}-5-(3,4-difluorophenylsulfinyl)-benzoic acid]
– | – | – | 404 | CCCCCC[S+]([O-])c1cc(C(=O)O)cc(C(=O)c2ccc(N(C)c3ccc(Cl)cc3)cn2)c1 (centres unmarked) [Example 4:2, 3-{5-[(4-Chlorophenyl)(methyl)amino]picolinoyl}-5-(1-hexylsulfinyl)-benzoic acid]
